Several values for one entry are separate records, joined by “and”; a condition that tells them apart may be missing. Equal entries are not always repeated.
How the values were obtained:
BxPC-3 tumors = experiment: BxPC-3 orthotopic tumor growth and metastasis in scid mice; type: in vivo; settings: BxPC-3 model; for lung metastasis, mean: control 5.5×10^8; for tumor burden, difference versus control / tumor burden, mean: end of six weeks; for tumor burden, mean: gemcitabine 125 mg/kg bi-weekly i.p., cromolyn 5 mg/kg daily i.p., control 1.6×10^9
Experimental: FIGS. 4A-4F show the effect of cromolyn on BxPC-3 tumor growth and metastasis in vivo. BxPC-3 cells stably expressing the firefly luciferase gene were injected orthotopically into 4 week old male CB 17 scid mice. […] Mice were divided into four groups of five mice each with an equivalent mean tumor size between groups. […] One group was treated with water (control), one group received gemcitabine bi-weekly (125 mg kg body weight bi-weekly by intraperitoneal injection), one group was administered cromolyn daily (5 mg per kg body weight daily by intraperitoneal injection), and the final group was given the combination of daily cromolyn and bi-weekly gemcitabine. All groups were treated for six weeks. Bioluminescent imaging was done weekly to assess tumor growth. […] Means and 95% confidence intervals are shown. (n=20). Two-tailed two-sample (unpaired) Student's t-tests were used to determine P values. The anti-tumorigenic capability of the drug cromolyn was assessed in 4-week-old male CB 17 scid mice (n=20) carrying orthopic tumors of BxPC-3, MPanc96, and Panc-1 cells stably expressing a Lenti-luc reporter. All mouse experiments were reviewed and approved by the Institutional Animal Care and Use Committee of UT MD Anderson Cancer Center. All mice were maintained in a sterile environment. Cages, bedding, food, and water were all autoclaved. All mice were maintained on a daily 12-hour light/12-hour dark cycle, according to the institutional animal welfare guidelines. BxPC-3, MPanc96, and Pane-1 cells carrying the Lenti-luc reporter gene were grown to 80% confluence, harvested by incubation with trypsin-EDTA, washed twice in PBS, and resuspended to a final concentration of 4.0×10^6 cells/mL. Each mouse (n=20 mice per cell line) was injected (into the pancreas) with cell suspensions (50 μL). Bioluminescent imaging to determine tumor volume was performed 1 week after injection because the tumors became established within this amount of time. This initial tumor volume was used to divide the mice into four groups of five mice each, such that the mean tumor size was equal between groups (FIGS. 4A, 5A, and 6A). To allow enough time to observe differences among treatment groups, the mice were followed for the next 5 weeks. One group of mice was then treated biweekly with a sub-maximal concentration of gemcitabine (125 mg per kg body weight by i.p. injection). A second group was treated with a daily injection of cromolyn (5 mg per kg body weight by i.p. injection). A third group was treated with both bi-weekly gemcitabine and daily cromolyn. The control group was treated daily with vehicle. Treatments were continued for 5 weeks, and the effects on the tumor burden and metastasis were analyzed by weekly bioluminescence imaging (FIGS. 4B, 5B, and 6B). At the end of the experiment the mice were anesthetized with 1.5% isofluorane/air mixture and killed by cervical dislocation. Bioluminescence imaging was conducted using a cryogenically cooled IVIS 100 imaging system coupled to a data acquisition computer running Living Image software (Xenogen Corp., Alameda, Calif.). Before imaging, mice were placed in an acrylic chamber, anesthetized with 1.5% isofluorane/air mixture, and injected i.p. with 15 mg/mL of luciferin potassium salt in PBS at a dose of 150 mg per kg body weight. A digital grey scale image of each mouse was acquired, followed by acquisition and overlay of a pseudocolor image representing the spatial distribution of detected photons emerging from active luciferase within the mouse. Tumor volume was quantified as the sum of all detected photons within the region of the tumor per second. At the end of experiment, the mice were killed, and tumors were surgically removed and weighed. After the primary tumors were removed, cancer cell dissemination and metastasis was visualized using IVIS imaging, and metastatic colonies were counted. Subsequently, tissues were fixed with formaldehyde, and histology was used to verify the accuracy of the bioluminescence data. […]

BxPC-3 cells = experiment: BxPC-3 apoptosis by flow cytometry (PI staining); type: cell-based; settings: 48 hours
Experimental: BxPC-3 cells were treated with cromolyn (10 μM) with (+) or without (−) gemcitabine (10 μM), and apoptosis was analyzed after 48 hours by flow cytometry. *, P<0.001 versus control, #, P=0.001 versus gemcitabine. Means and 95% confidence intervals of three independent experiments performed in triplicate are shown. Two-tailed two-sample (unpaired) Student's t-tests were used to determine P values. Standard propidium iodide (PI) staining by the hypotonic lysis method was used for apoptosis studies. Apoptosis was induced in 1.0×10^6 BxPC-3 cells by treatment with gemcitabine (10 μM), with or without cromolyn. After 48 hours the cells were detached from culture dishes by incubation in 0.05% trypsin-EDTA, washed once with cold PBS, and then incubated for 30 minutes in 500 μL of hypotonic solution (0.1% sodium citrate, 0.1% Triton X-100, 100 μg/mL RNAse, and 50 μg/mL PI), and analyzed by flow cytometry (EPICS XL, Beckman Coulter Inc, Fullerton, Calif.). Cells undergoing apoptosis that had lost part of their DNA were identified as the population of cells with sub-G1 DNA content. These assays were performed three times.

Nc1ccn([C@@H]2O[C@H](CO)[C@@H](O)C2(F)F)c(=O)n1 [gemcitabine]
body weight, difference versus control (BxPC-3 tumors): 3.9 g
lung metastasis, mean (BxPC-3 tumors): 3.9×10^8 photons/sec
body weight at the end of the experiment, mean (BxPC-3 tumors; control 31.1): 27.2 g
tumor burden, difference versus control (BxPC-3 tumors): 6.8×10^8 photons/sec
tumor burden, mean (BxPC-3 tumors): 9.2×10^8 photons/sec
metastasis in lung or liver compared with control mice (BxPC-3 tumors; treatment alone): did not reduce
apoptotic cells, difference versus control (BxPC-3 cells; gemcitabine 10 μM): 27.3%
apoptotic cells, mean (BxPC-3 cells; gemcitabine 10 μM, control 3.7%): 31.0% and 30.8%

O=C(O)c1cc(=O)c2c(OCC(O)COc3cccc4oc(C(=O)O)cc(=O)c34)cccc2o1 [cromolyn, disodium 1,3-bis[(2′-carboxylatochromon-5′-yl)oxy]-2-hydroxypropane]
liver metastasis (in words) (BxPC-3 tumors): but not liver metastasis
lung metastasis, difference versus control (BxPC-3 tumors): 3.9×10^8 photons/sec
lung metastasis, mean (BxPC-3 tumors): 1.6×10^8 photons/sec
tumor burden, difference versus control (BxPC-3 tumors): 1.2×10^9 photons/sec
tumor burden, mean (BxPC-3 tumors): 4.4×10^8 photons/sec
effect on body weight (in words) (BxPC-3 tumors; up to 6 weeks): no effect
cell apoptosis, cromolyn alone (BxPC-3 cells; cromolyn 10 μM): no statistically significant effect

Source: US20110195924A1, “Methods of Inhibiting the Interaction Between S100P and the Receptor for Advanced Glycation End-Products” (priority 2008, published 2011)
